According to ChEMBL document CHEMBL1671662, “In vitro activities of telavancin and six comparator agents against anaerobic bacterial isolates” (2009):

Tests used:
Eggerthella lenta = assay: Antibacterial activity against Eggerthella lenta by CLSI M11-A6 agar dilution method; format: functional
[1] = test system: Coprobacillus cateniformis; assay: Antibacterial activity against Coprobacillus cateniformis by CLSI M11-A6 agar dilution method; format: functional
[2] = test system: Clostridium celerecrescens; assay: Antibacterial activity against Clostridium celerecrescens by CLSI M11-A6 agar dilution method; format: functional; details: Lacrimispora celerecrescens
[3] = test system: Ruminococcus flavefaciens; assay: Antibacterial activity against Ruminococcus flavefaciens by CLSI M11-A6 agar dilution method; format: functional
Clostridioides difficile = assay: Antibacterial activity against Clostridium difficile by CLSI M11-A6 agar dilution method; format: functional
Bifidobacterium dentium = assay: Antibacterial activity against Bifidobacterium dentium by CLSI M11-A6 agar dilution method; format: functional
[4] = test system: Clostridium sporosphaeroides; assay: Antibacterial activity against Clostridium sporosphaeroides by CLSI M11-A6 agar dilution method; format: functional; details: Faecalispora sporosphaeroides
Prevotella intermedia [5] = assay: Antibacterial activity against Prevotella P intermedia by CLSI M11-A6 agar dilution method; format: functional
[6] = test system: Paeniclostridium sordellii; assay: Antibacterial activity against Clostridium sordellii by CLSI M11-A6 agar dilution method; format: functional; details: Paraclostridium sordellii
Coriobacterium = assay: Antibacterial activity against […] by CLSI M11-A6 agar dilution method; format: functional
Bifidobacterium bifidum = assay: Antibacterial activity against Bifidobacterium bifidum by CLSI M11-A6 agar dilution method; format: functional
Anaerococcus tetradius = assay: Antibacterial activity against Anaerococcus tetradius by CLSI M11-A6 agar dilution method; format: functional
Blautia luti = assay: Antibacterial activity against Ruminococcus luti by CLSI M11-A6 agar dilution method; format: functional
[7] = Antibacterial activity against Bifidobacterium infantis by CLSI M11-A6 agar dilution method; format: functional, Bifidobacterium longum subsp. infantis; details: Bifidobacterium longum
Prevotella intermedia [8] = assay: Antibacterial activity against Prevotella intermedia by CLSI M11-A6 agar dilution method; format: functional
Blautia producta = assay: Antibacterial activity against Ruminococcus productus by CLSI M11-A6 agar dilution method; format: functional
Prevotella oris = assay: Antibacterial activity against Prevotella oris by CLSI M11-A6 agar dilution method; format: functional; details: Segatella oris
Bacteroides fragilis = assay: Antibacterial activity against Bacteroides fragilis by CLSI M11-A6 agar dilution method; format: functional
Clostridium butyricum = assay: Antibacterial activity against Clostridium butyricum by CLSI M11-A6 agar dilution method; format: functional
Clostridium bolteae = assay: Antibacterial activity against Clostridium bolteae by CLSI M11-A6 agar dilution method; format: functional; details: Enterocloster bolteae
Anaerococcus prevotii = assay: Antibacterial activity against Anaerococcus prevotii by CLSI M11-A6 agar dilution method; format: functional
Hoylesella loescheii = assay: Antibacterial activity against Prevotella loescheii by CLSI M11-A6 agar dilution method; format: functional
Clostridium glycolicum = assay: Antibacterial activity against Clostridium glycolicum by CLSI M11-A6 agar dilution method; format: functional; details: Terrisporobacter glycolicus
Clostridium sp. = assay: Antibacterial activity against Clostridium sp. by CLSI M11-A6 agar dilution method; format: functional
Bifidobacterium breve = assay: Antibacterial activity against Bifidobacterium breve by CLSI M11-A6 agar dilution method; format: functional
[9] = test system: Prevotella melaninogenica; assay: Antibacterial activity against Prevotella melaninogenica by CLSI M11-A6 agar dilution method; format: functional
Clostridium spiroforme = assay: Antibacterial activity against Clostridium spiroforme by CLSI M11-A6 agar dilution method; format: functional; details: Thomasclavelia spiroformis
Holdemania filiformis = assay: Antibacterial activity against Holdemania filiformis by CLSI M11-A6 agar dilution method; format: functional
Prevotella buccae = assay: Antibacterial activity against Prevotella buccae by CLSI M11-A6 agar dilution method; format: functional; details: Segatella buccae
[10] = test system: Paraclostridium bifermentans; assay: Antibacterial activity against Clostridium bifermentans by CLSI M11-A6 agar dilution method; format: functional
Bacteroides ovatus = assay: Antibacterial activity against Bacteroides ovatus by CLSI M11-A6 agar dilution method; format: functional
Clostridium leptum = assay: Antibacterial activity against Clostridium leptum by CLSI M11-A6 agar dilution method; format: functional
Prevotella corporis = assay: Antibacterial activity against Prevotella corporis by CLSI M11-A6 agar dilution method; format: functional
Clostridium disporicum = assay: Antibacterial activity against Clostridium disporicum by CLSI M11-A6 agar dilution method; format: functional
Ruminococcus obeum = assay: Antibacterial activity against Ruminococcus obeum by CLSI M11-A6 agar dilution method; format: functional; details: Blautia obeum
[Clostridium] innocuum = Antibacterial activity against Clostridium innocuum by CLSI M11-A6 agar dilution method; format: functional
[11] = test system: Catenibacterium mitsuokai; assay: Antibacterial activity against Catenibacterium mitsuokai by CLSI M11-A6 agar dilution method; format: functional
[12] = test system: Peptostreptococcus anaerobius; assay: Antibacterial activity against Peptostreptococcus anaerobius by CLSI M11-A6 agar dilution method; format: functional
Clostridium = assay: Antibacterial activity against Clostridium hypermegas by CLSI M11-A6 agar dilution method; format: functional

CCC[C@@H]1C[C@@H](C(=O)N[C@@H]([C@H]2O[C@H](SC)[C@H](O)[C@@H](O)[C@H]2O)[C@H](C)Cl)N(C)C1 [CLINDAMYCIN]
1 µg/mL: MIC90 (Eggerthella lenta) | MIC90 [1] | MIC90 (Bifidobacterium dentium) | MIC90 (Coriobacterium) | MIC90 (Bifidobacterium bifidum) | MIC90 [7] | MIC90 (Bifidobacterium breve) | MIC90 (Holdemania filiformis) | MIC50 ([Clostridium] innocuum) | MIC90 [11]
128 µg/mL: MIC90 (Clostridioides difficile)
≤ 0.12 µg/mL: MIC50 (Eggerthella lenta) | MIC50 [1] | MIC50 [3] | MIC50 (Bifidobacterium dentium) | MIC (Prevotella intermedia [5]) | MIC50 (Prevotella intermedia [5]) | MIC90 (Prevotella intermedia [5]) | MIC50 (Coriobacterium) | MIC50 (Bifidobacterium bifidum) | MIC50 (Blautia luti) | MIC50 [7] | MIC (Prevotella intermedia [8]) | MIC50 (Prevotella intermedia [8]) | MIC90 (Prevotella intermedia [8]) | MIC50 (Blautia producta) | MIC (Prevotella oris) | MIC50 (Prevotella oris) | MIC90 (Prevotella oris) | MIC (Hoylesella loescheii) | MIC50 (Hoylesella loescheii) | MIC90 (Hoylesella loescheii) | MIC50 (Bifidobacterium breve) | MIC [9] | MIC50 [9] | MIC90 [9] | MIC50 (Holdemania filiformis) | MIC (Prevotella buccae) | MIC50 (Prevotella buccae) | MIC90 (Prevotella buccae) | MIC (Prevotella corporis) | MIC50 (Prevotella corporis) | MIC90 (Prevotella corporis) | MIC50 (Ruminococcus obeum) | MIC90 (Ruminococcus obeum) | MIC50 [11]
2 µg/mL: MIC90 [3] | MIC90 (Blautia luti) | MIC90 (Blautia producta) | MIC50 (Clostridium bolteae) | MIC50 (Bacteroides ovatus)
0.5 µg/mL: MIC50 (Bacteroides fragilis)
> 128 µg/mL: MIC90 (Anaerococcus tetradius) | MIC90 (Bacteroides fragilis) | MIC90 (Anaerococcus prevotii) | MIC90 (Bacteroides ovatus) | MIC90 ([Clostridium] innocuum) | MIC90 [12]
4 µg/mL: MIC90 [2] | MIC50 (Clostridioides difficile) | MIC90 [4] | MIC90 [6] | MIC90 (Clostridium butyricum) | MIC90 (Clostridium bolteae) | MIC90 (Clostridium glycolicum) | MIC90 (Clostridium sp.) | MIC90 (Clostridium spiroforme) | MIC90 [10] | MIC90 (Clostridium leptum) | MIC90 (Clostridium disporicum)

CC(=O)NC[C@H]1CN(c2ccc(N3CCOCC3)c(F)c2)C(=O)O1 [LINEZOLID]
1 µg/mL: MIC50 (Eggerthella lenta) | MIC50 [1] | MIC50 (Bifidobacterium dentium) | MIC50 (Coriobacterium) | MIC50 (Bifidobacterium bifidum) | MIC50 (Anaerococcus tetradius) | MIC50 (Anaerococcus prevotii) | MIC50 (Bifidobacterium breve) | MIC50 (Holdemania filiformis) | MIC (Ruminococcus obeum) | MIC50 (Ruminococcus obeum) | MIC50 [11] | MIC50 [12]
2 µg/mL: MIC50 [2] | MIC50 [3] | MIC50 (Clostridioides difficile) | MIC50 [4] | MIC50 (Prevotella intermedia [5]) | MIC90 (Prevotella intermedia [5]) | MIC50 [6] | MIC90 (Anaerococcus tetradius) | MIC50 (Blautia luti) | MIC50 (Prevotella intermedia [8]) | MIC90 (Prevotella intermedia [8]) | MIC50 (Blautia producta) | MIC50 (Prevotella oris) | MIC90 (Prevotella oris) | MIC50 (Clostridium butyricum) | MIC90 (Anaerococcus prevotii) | MIC50 (Hoylesella loescheii) | MIC90 (Hoylesella loescheii) | MIC50 (Clostridium glycolicum) | MIC50 (Clostridium sp.) | MIC50 [9] | MIC90 [9] | MIC50 (Clostridium spiroforme) | MIC50 (Prevotella buccae) | MIC90 (Prevotella buccae) | MIC50 (Clostridium) | MIC50 [10] | MIC50 (Clostridium leptum) | MIC50 (Prevotella corporis) | MIC90 (Prevotella corporis) | MIC50 (Clostridium disporicum) | MIC90 (Ruminococcus obeum) | MIC ([Clostridium] innocuum) | MIC50 ([Clostridium] innocuum) | MIC90 [12]
4 µg/mL: MIC90 [2] | MIC90 [3] | MIC90 [4] | MIC90 [6] | MIC90 (Blautia luti) | MIC90 (Blautia producta) | MIC (Bacteroides fragilis) | MIC50 (Bacteroides fragilis) | MIC90 (Clostridium butyricum) | MIC50 (Clostridium bolteae) | MIC90 (Clostridium bolteae) | MIC90 (Clostridium glycolicum) | MIC90 (Clostridium sp.) | MIC90 (Clostridium spiroforme) | MIC90 (Clostridium) | MIC90 [10] | MIC50 (Bacteroides ovatus) | MIC90 (Bacteroides ovatus) | MIC90 (Clostridium leptum) | MIC90 (Clostridium disporicum) | MIC90 ([Clostridium] innocuum)
16 µg/mL: MIC90 (Clostridioides difficile)
8 µg/mL: MIC90 (Eggerthella lenta) | MIC90 [1] | MIC90 (Bifidobacterium dentium) | MIC90 (Coriobacterium) | MIC90 (Bifidobacterium bifidum) | MIC90 [7] | MIC90 (Bacteroides fragilis) | MIC90 (Bifidobacterium breve) | MIC90 (Holdemania filiformis) | MIC90 [11]
